Laboratory results reported in patent US12371464B2, “Polypeptides and uses thereof” (MEDIMMUNE LIMITED, priority 2020, dated 2025).
Numbered stars: 1 amine (or outer) side, 2 acyl side, 3 side chain; on linkers, the order of the positions; unused ones are H or OH. Bridge positions count the residues as written; N and C are the ends. Square brackets hold non-standard residues; d marks the D form. Side chains are listed from the residue outwards. Peptide text beside a SMILES is read from it. * marks the point of attachment. C18 diacid = O=C(O)CCCCCCCCCCCCCCCCC(=O)*; γGlu = O=C(O)[C@H](CCC(=O)[*:2])N[*:1]; Dab = NCC[C@H](N)C(=O)O; AEEA = NCCOCCOCC(=O)O; Aib = CC(C)(N)C(=O)O

Test: Thioflavin T fibrillation assay
Assay type: physicochemical
Settings: for Time taken to detect increase in fluorescence intensity: 1 mg/mL in 25 mM sodium acetate buffer pH 4.0, 37° C., 6 days, orbital shaking, >144 h = no increase; for fibril-forming tendency on conjugating pramlintide to a lipid: as seen in Table 7
Excerpt: Peptide aggregation that form fibrils is an indication of physical instability. Fibril formation in solution poses a significant risk for the stability of injectable peptide drug products. Thioflavin T (ThT) fibrillation assay is a useful tool to assess the aggregation kinetics of a peptide or protein under accelerated and stressed conditions that can be used to forecast the long-term viability of a compound in solution. ThT can selectively bind amyloid fibrils and the resultant complex emits strong fluorescence signal at 482 nm when excited at 450 nm (Anal Biochem. 1989 March; 177 (2): 244-9). Monitoring of the change in fluorescence signal is an established method to study the fibril forming potential of peptides and proteins. ThT (purchased from Sigma Aldrich) stock solution is prepared by dissolving the ThT powder in Milli-Q water and filtered to obtain a 0.25 mM solution. The concentration of the solution is measured at 412 nm using an extinction coefficient of 36 mM-1 cm-1. Test peptides were dissolved at 1 mg/mL in 25 mM sodium acetate buffer pH 4.0. 100 μL aliquot of peptide solution and 5 μL aliquot of ThT solution were placed in a clear bottom black fluorescence 96-well plate. 5 replicates of each test samples were placed in the same row of the plate. Buffer was placed in control wells for baseline correction. All empty wells were filled with water to prevent evaporation. The plate was sealed with aluminium seal and placed in fluorescence plate reader and incubated for 6 days at 37° C. with intermittent orbital shaking at 500 to 750 rpm. The fluorescence intensity was measured every 30 min using excitation at 444 nm and emission at 480 nm. The fibril forming potential of the test peptides was determined by measuring the average time taken to detect an increase in baseline corrected fluorescence intensity.

Compound	Time taken to detect increase in fluorescence intensity [h]	fibril-forming tendency on conjugating pramlintide to a lipid
CC[C@H](C)[C@H](NC(=O)[C@@H]1CCCN1C(=O)CNC(=O)[C@H](Cc1ccccc1)NC(=O)[C@H](CC(N)=O)NC(=O)[C@H](CC(N)=O)NC(=O)[C@H](CO)NC(=O)[C@H](CO)NC(=O)[C@H](Cc1c[nH]cn1)NC(=O)[C@@H](NC(=O)[C@H](CC(C)C)NC(=O)[C@H](Cc1ccccc1)NC(=O)[C@H](CC(N)=O)NC(=O)[C@H](C)NC(=O)[C@H](CC(C)C)NC(=O)[C@H](CCCNC(=N)N)NC(=O)[C@H](CCC(N)=O)NC(=O)[C@@H](NC(=O)[C@H](C)NC(=O)[C@@H]1CSSC[C@H](NC(=O)[C@H](CCCCN)NC(=O)CC[C@H](NC(=O)CCCCCCCCCCCCCCCCC(=O)O)C(=O)O)C(=O)N[C@@H](CC(N)=O)C(=O)N[C@@H]([C@@H](C)O)C(=O)N[C@@H](C)C(=O)N[C@@H]([C@@H](C)O)C(=O)N1)[C@@H](C)O)C(C)C)C(=O)N[C@@H](CC(C)C)C(=O)N1CCC[C@H]1C(=O)N1CCC[C@H]1C(=O)N[C@H](C(=O)N[C@@H](CC(N)=O)C(=O)N[C@H](C(=O)NCC(=O)N[C@@H](CO)C(=O)N[C@@H](CC(N)=O)C(=O)N[C@H](C(=O)N[C@@H](Cc1ccc(O)cc1)C(N)=O)[C@@H](C)O)C(C)C)[C@@H](C)O [Peptide 3] ({C18 diacid-γGlu}-KCNTATCATQRLANFLVHSSNNFGPILPPTNVGSNTY-NH2; disulfide 2-7)	<5	increases the fibril-forming tendency
CC[C@H](C)[C@H](NC(=O)[C@@H]1CCCN1C(=O)CNC(=O)[C@H](Cc1ccccc1)NC(=O)[C@H](CC(N)=O)NC(=O)[C@H](CC(N)=O)NC(=O)[C@H](CO)NC(=O)[C@H](CO)NC(=O)[C@H](Cc1c[nH]cn1)NC(=O)[C@@H](NC(=O)[C@H](CC(C)C)NC(=O)[C@H](Cc1ccccc1)NC(=O)[C@H](CC(N)=O)NC(=O)[C@H](C)NC(=O)[C@H](CC(C)C)NC(=O)[C@H](CCCNC(=N)N)NC(=O)[C@H](CCC(N)=O)NC(=O)[C@@H](NC(=O)[C@H](C)NC(=O)[C@@H]1CSSC[C@H](NC(=O)[C@H](CCCCN)NC(=O)CNC(=O)CNC(=O)CNC(=O)CC[C@H](NC(=O)CC[C@H](NC(=O)CCCCCCCCCCCCCCCCC(=O)O)C(=O)O)C(=O)O)C(=O)N[C@@H](CC(N)=O)C(=O)N[C@@H]([C@@H](C)O)C(=O)N[C@@H](C)C(=O)N[C@@H]([C@@H](C)O)C(=O)N1)[C@@H](C)O)C(C)C)C(=O)N[C@@H](CC(C)C)C(=O)N1CCC[C@H]1C(=O)N1CCC[C@H]1C(=O)N[C@H](C(=O)N[C@@H](CC(N)=O)C(=O)N[C@H](C(=O)NCC(=O)N[C@@H](CO)C(=O)N[C@@H](CC(N)=O)C(=O)N[C@H](C(=O)N[C@@H](Cc1ccc(O)cc1)C(N)=O)[C@@H](C)O)C(C)C)[C@@H](C)O [Peptide 4] ({C18 diacid-γGlu-γGlu}-GGGKCNTATCATQRLANFLVHSSNNFGPILPPTNVGSNTY-NH2; disulfide 5-10)	<5	increases the fibril-forming tendency
CC[C@H](C)[C@H](NC(=O)[C@@H]1CCCN1C(=O)CNC(=O)[C@H](Cc1ccccc1)NC(=O)[C@H](CC(N)=O)NC(=O)[C@H](CC(N)=O)NC(=O)[C@H](CO)NC(=O)[C@H](CO)NC(=O)[C@H](Cc1c[nH]cn1)NC(=O)[C@@H](NC(=O)[C@H](CC(C)C)NC(=O)[C@H](Cc1ccccc1)NC(=O)[C@H](CC(N)=O)NC(=O)[C@H](C)NC(=O)[C@H](CC(C)C)NC(=O)[C@H](CCCNC(=N)N)NC(=O)[C@H](CCC(N)=O)NC(=O)[C@@H](NC(=O)[C@H](C)NC(=O)[C@@H]1CSSC[C@H](NC(=O)[C@@H](N)CCCCNC(=O)CC[C@H](NC(=O)CC[C@H](NC(=O)CCCCCCCCCCCCCCCCC(=O)O)C(=O)O)C(=O)O)C(=O)N[C@@H](CC(N)=O)C(=O)N[C@@H]([C@@H](C)O)C(=O)N[C@@H](C)C(=O)N[C@@H]([C@@H](C)O)C(=O)N1)[C@@H](C)O)C(C)C)C(=O)N[C@@H](CC(C)C)C(=O)N1CCC[C@H]1C(=O)N1CCC[C@H]1C(=O)N[C@H](C(=O)N[C@@H](CC(N)=O)C(=O)N[C@H](C(=O)NCC(=O)N[C@@H](CO)C(=O)N[C@@H](CC(N)=O)C(=O)N[C@H](C(=O)N[C@@H](Cc1ccc(O)cc1)C(N)=O)[C@@H](C)O)C(C)C)[C@@H](C)O [Peptide 5] (H-K([γGlu-γGlu-C18 diacid])CNTATCATQRLANFLVHSSNNFGPILPPTNVGSNTY-NH2; disulfide 2-7; N-terminus assumed)	7	increases the fibril-forming tendency

Second part, the molecule after the results:

Time taken to detect increase in fluorescence intensity [h]	fibril-forming tendency on conjugating pramlintide to a lipid	Compound
15	increases the fibril-forming tendency	CC[C@H](C)[C@H](NC(=O)[C@@H]1CCCN1C(=O)CNC(=O)[C@H](Cc1ccccc1)NC(=O)[C@H](CC(N)=O)NC(=O)[C@H](CC(N)=O)NC(=O)[C@H](CO)NC(=O)[C@H](CO)NC(=O)[C@H](Cc1c[nH]cn1)NC(=O)[C@@H](NC(=O)[C@H](CC(C)C)NC(=O)[C@H](Cc1ccccc1)NC(=O)[C@H](CC(N)=O)NC(=O)[C@H](C)NC(=O)[C@H](CC(C)C)NC(=O)[C@H](CCCNC(=N)N)NC(=O)[C@H](CCC(N)=O)NC(=O)[C@@H](NC(=O)[C@H](C)NC(=O)[C@@H]1CSSC[C@H](NC(=O)[C@@H](N)CCCCNC(=O)COCCOCCNC(=O)COCCOCCNC(=O)CC[C@H](NC(=O)CCCCCCCCCCCCCCCCC(=O)O)C(=O)O)C(=O)N[C@@H](CC(N)=O)C(=O)N[C@@H]([C@@H](C)O)C(=O)N[C@@H](C)C(=O)N[C@@H]([C@@H](C)O)C(=O)N1)[C@@H](C)O)C(C)C)C(=O)N[C@@H](CC(C)C)C(=O)N1CCC[C@H]1C(=O)N1CCC[C@H]1C(=O)N[C@H](C(=O)N[C@@H](CC(N)=O)C(=O)N[C@H](C(=O)NCC(=O)N[C@@H](CO)C(=O)N[C@@H](CC(N)=O)C(=O)N[C@H](C(=O)N[C@@H](Cc1ccc(O)cc1)C(N)=O)[C@@H](C)O)C(C)C)[C@@H](C)O [Peptide 6] (H-K([AEEA-AEEA-γGlu-C18 diacid])CNTATCATQRLANFLVHSSNNFGPILPPTNVGSNTY-NH2; disulfide 2-7; N-terminus assumed)
7	–	CC[C@H](C)[C@H](NC(=O)[C@H](C)NC(=O)[C@@H]1CCCN1C(=O)[C@H](Cc1ccccc1)NC(=O)[C@H](CC(N)=O)NC(=O)[C@H](CCN)NC(=O)[C@H](CO)NC(=O)[C@H](CO)NC(=O)[C@H](Cc1c[nH]cn1)NC(=O)[C@@H](NC(=O)[C@H](CC(C)C)NC(=O)[C@H](Cc1ccccc1)NC(=O)[C@H](CC(N)=O)NC(=O)[C@H](C)NC(=O)[C@H](CC(C)C)NC(=O)[C@H](CCCNC(=N)N)NC(=O)[C@H](CCC(N)=O)NC(=O)[C@@H](NC(=O)[C@H](C)NC(=O)[C@@H]1CSSC[C@H](NC(=O)[C@@H](N)CCCCNC(=O)CC[C@H](NC(=O)CC[C@H](NC(=O)CCCCCCCCCCCCCCCCC(=O)O)C(=O)O)C(=O)O)C(=O)N[C@@H](CC(N)=O)C(=O)N[C@@H]([C@@H](C)O)C(=O)N[C@@H](C)C(=O)N[C@@H]([C@@H](C)O)C(=O)N1)[C@@H](C)O)C(C)C)C(=O)N[C@@H](CC(C)C)C(=O)N[C@@H](CO)C(=O)N1CCC[C@H]1C(=O)N[C@H](C(=O)N[C@@H](CC(N)=O)C(=O)N[C@H](C(=O)NCC(=O)N[C@@H](CO)C(=O)N[C@@H](CC(N)=O)C(=O)N[C@H](C(=O)N[C@@H](Cc1ccc(O)cc1)C(N)=O)[C@@H](C)O)C(C)C)[C@@H](C)O [Peptide 8, K(γE-γE-C18diacid)[CNTATC]ATQRLANFLVHSS(Dab)NFPAILSPTNVGSNTY-amide] (H-K([γGlu-γGlu-C18 diacid])CNTATCATQRLANFLVHSS[Dab]NFPAILSPTNVGSNTY-NH2; disulfide 2-7; N-terminus assumed)
7	–	CC[C@H](C)[C@H](NC(=O)[C@H](C)NC(=O)[C@@H]1CCCN1C(=O)[C@H](Cc1ccccc1)NC(=O)[C@H](CC(N)=O)NC(=O)C(C)(C)NC(=O)[C@H](CO)NC(=O)[C@H](CO)NC(=O)[C@H](Cc1c[nH]cn1)NC(=O)[C@@H](NC(=O)[C@H](CC(C)C)NC(=O)[C@H](Cc1ccccc1)NC(=O)[C@H](CC(N)=O)NC(=O)[C@H](C)NC(=O)[C@H](CC(C)C)NC(=O)[C@H](CCCNC(=N)N)NC(=O)[C@H](CCC(N)=O)NC(=O)[C@@H](NC(=O)[C@H](C)NC(=O)[C@@H]1CSSC[C@H](NC(=O)[C@@H](N)CCCCNC(=O)CC[C@H](NC(=O)CC[C@H](NC(=O)CCCCCCCCCCCCCCCCC(=O)O)C(=O)O)C(=O)O)C(=O)N[C@@H](CC(N)=O)C(=O)N[C@@H]([C@@H](C)O)C(=O)N[C@@H](C)C(=O)N[C@@H]([C@@H](C)O)C(=O)N1)[C@@H](C)O)C(C)C)C(=O)N[C@@H](CC(C)C)C(=O)N[C@@H](CO)C(=O)N1CCC[C@H]1C(=O)N[C@H](C(=O)N[C@@H](CC(N)=O)C(=O)N[C@H](C(=O)NCC(=O)N[C@@H](CO)C(=O)N[C@@H](CC(N)=O)C(=O)N[C@H](C(=O)N[C@@H](Cc1ccc(O)cc1)C(N)=O)[C@@H](C)O)C(C)C)[C@@H](C)O [Peptide 9, K(γE-γE-C18diacid)[CNTATC]ATQRLANFLVHSS(Aib)NFPAILSPTNVGSNTY-amide] (H-K([γGlu-γGlu-C18 diacid])CNTATCATQRLANFLVHSS[Aib]NFPAILSPTNVGSNTY-NH2; disulfide 2-7; N-terminus assumed)
